Test results taken from US12202826B2, “N-pyridinyl acetamide derivatives as inhibitors of the Wnt signaling pathway” (Redx Pharma PLC, priority 2014, dated 2025).

Columns and labels:
[1] = Dual-Cell β-Catenin Reporter Assay; assay type: cell-based, Mouse; settings: Mus musculus, luciferase signal reduced to 50% of DMSO control
Procedure: (§1) Dual-Cell β-Catenin Reporter Assay
(§2) Mouse L cells transfected to constitutively produce biologically active murine Wnt-3a, referred to as L-Wnt cells, were purchased from the American Type Culture Collection, ATCC, Manassas, VA (ATCC). These cells were cultured in DMEM supplemented with 10% FCS (Gibco/Invitrogen, Carlsbad, CA), 1% geneticin and 1% sodium pyruvate (Sigma) at 37° C. with 5% CO2. The cells were seeded into 96 well plates and treated with serial dilutions of compound diluted to 0.1% DMSO concentration. After 24 hours, cell supernatants were transferred to a 96 well plate previously seeded with Leading Light® Wnt Reporter Cells, stably transfected with a luciferase gene under control of Wnt pathway response elements. After a further 24 hours, cells are treated with One-glo luciferase assay system (Promega, Madison, WI) and the luminescent signal read by envision. The IC50 of the compound is determined as the concentration that reduces the induced luciferase signal to 50% of the DMSO control.
(§3) The category “+” refers to compounds with an IC50 of >100 μM. The category “++” refers to compounds with an IC50 of 5 to 100 μM. The category “+++” refers to compounds with an IC50<5 μM.

[2] = system: L-Wnt cells (murine Wnt-3a) / Leading Light Wnt Reporter Cells (luciferase under control of Wnt pathway response elements); assay: Dual-Cell β-Catenin Reporter Assay; assay type: cell-based, Mouse; settings: category of IC50; luciferase signal reduced to 50% of DMSO control
Procedure: as §1, §2, §3

IC50 ([1]; category of IC50) | IC50 [1] | IC50 [2] | Molecule
5 to 100 nM | 12.2 nM | – | Cc1cc(-c2cnn(CC(=O)Nc3ccc(-c4cnccn4)cn3)c2)ccn1 [compound 3]
< 5 nM | 0.91 nM | – | CC(C)(C)OC(=O)N1CCN(c2ccc(NC(=O)Cn3cnc(-c4ccnc(C(F)(F)F)c4)c3)nc2)CC1 [compound 6]
< 5 nM | 0.14 nM | – | Cc1nn(CC(=O)Nc2ccc(-c3ccc(C#N)cc3)cn2)c(C)c1-c1ccnc(C(F)(F)F)c1 [compound 54]
< 5 nM | 0.05 nM | – | Cc1c(-c2ccnc(C(F)(F)F)c2)ncn1CC(=O)Nc1ccc(-c2cnccn2)cn1 [compound 74]
< 5 nM | 0.61 nM | – | Cc1cc(-c2nn(CC(=O)Nc3ccc(-c4cnccn4)cn3)cc2C)ccn1 [compound 75]
– | – | 5 to 100 nM | Cc1nn(CC(=O)Nc2ccc(-c3cncnc3)cn2)c(C)c1C1CC(C)OC(C)C1 (centres unmarked) [compound 96]
– | – | 5 to 100 nM | Cc1nn(CC(=O)Nc2ccc(-c3ncccn3)cn2)c(C)c1C1CC(C)OC(C)C1 (centres unmarked) [compound 97]
– | – | 5 to 100 nM | COc1ccc(-c2ccc(NC(=O)Cn3cc(-c4ccnc(C(F)(F)F)c4)c(C)n3)nc2)cn1 [compound 98]
– | – | < 5 nM | Cc1nn(CC(=O)Nc2ccc(-c3ccc(N(C)C)nc3)cn2)cc1-c1ccnc(C(F)(F)F)c1 [compound 99]
– | – | 5 to 100 nM | Cc1nn(CC(=O)Nc2ccc(-c3cnccn3)cn2)c(C)c1-c1ccnc(N(C)C)c1 [compound 100]
– | – | 5 to 100 nM | Cc1nn(CC(=O)Nc2ccc(-c3cnccn3)cn2)c(C)c1-c1ccc(N(C)C)nc1 [compound 101]
– | – | 5 to 100 nM | Cc1nn(CC(=O)Nc2ccc(-c3cncnc3)cn2)c(C)c1-c1ccc(N(C)C)nc1 [compound 102]
– | – | < 5 nM | CC(=O)Nc1ccc(-c2ccc(NC(=O)Cn3cc(-c4ccnc(C(F)(F)F)c4)c(C)n3)nc2)cn1 [compound 103]
– | – | < 5 nM | Cc1c(-c2ccnc(C(F)(F)F)c2)ncn1CC(=O)Nc1ccc(-c2cncnc2)cn1 [compound 104]
– | – | < 5 nM | Cc1c(-c2ccnc(C(F)(F)F)c2)ncn1CC(=O)Nc1ccc(-c2ncccn2)cn1 [compound 105]
< 5 nM | 0.05 nM | – | Cc1c(-c2ccnc(C(F)(F)F)c2)ncn1CC(=O)Nc1ccc(-c2ccc(C#N)cc2)cn1 [compound 107]
– | – | < 5 nM | Cc1c(-c2ccnc(C(F)(F)F)c2)ncn1CC(=O)Nc1ccc(-c2cccnc2)cn1 [compound 108]
– | – | 5 to 100 nM | Cc1c(-c2ccnc(C(F)(F)F)c2)ncn1CC(=O)Nc1ccc(-c2ccnc(C#N)c2)cn1 [compound 109]
– | – | < 5 nM | Cc1c(-c2ccnc(F)c2)ncn1CC(=O)Nc1ccc(-c2cnccn2)cn1 [compound 110]

Molecule | IC50 ([1]; category of IC50) | IC50 [1] | IC50 [2]
tert-butyl 4-[1-[2-oxo-2-[(5-pyrazin-2-yl-2-pyridyl)amino]ethyl]pyrazol-4-yl]-3,6-dihydro-2H-pyridine-1-carboxylate [Example 16] | – | – | 5 to 100 nM
